Experimental data reported in patent publication US20190086391A1, “METHOD AND SYSTEM FOR CONTINUOUS BIOSENSING” (Yissum Research Development Company of the Hebrew …, priority 2016, published 2019).
“And” between values parts separate entries of the source, which are not always exact repeats. Equal values may be shown once. “Also recorded” adds a separate entry of the source.

Tests used:
[1] = system: HepG2/C3A cells; assay: JC-1 mitochondrial membrane potential staining; assay type: cell-based, human; conditions: 50 μM
Protocol: JC-1 cell permeable dye was purchased from Life Technologies (New York, N.Y.). HepG2/C3A cells were incubated with 50 μM of troglitazone or rotenone for varying durations. To evaluate mitochondrial membrane potential at each time point, cells were incubated with 5 μM JC-1 dye for 30 min, washed with PBS and imaged by confocal microscopy on a LSM700 (Zeiss, Germany). […] Consequently, mitochondrial depolarization is quantified by dividing red over green fluorescence intensity.

[2] = system: HepG2/C3A cells; assay: TUNEL apoptosis assay; assay type: cell-based, human; conditions: 24 hours exposure to 200 μM
Protocol: (§1) PMDS microwell inserts were removed from the bioreactor following 24 hours exposure to rotenone or troglitazone. Cholestasis was evaluated using 5(6)-carboxy-2′, 7′-dichlorofluorescein diacetate (CDFDA) cell permeable dye which is metabolized to fluorescent CDF and secreted to active bile canaliculi by active multidrug resistance-associated protein 2 (MRP2). Briefly, cells were incubated with 2 μg/mL of CDFDA and 1 μg/mL of Hoechst 33342 for 20 min, and washed with PBS. Number of bile canaliculi foci was normalized for number of Hoechst-labeled nuclei. Apoptosis was evaluated using DeadEnd™ fluorometric TUNEL system (Promega, USA) according to manufacturer directions. Briefly, cells were fixed in 4% paraformaldehyde, permeabilized and exposed to fluorescein-12-dUTP and terminal deoxynucleotidyl transferase (TdT), dyeing apoptotic nuclei green. The reaction was subsequently stopped and the cells counterstained for Hoechst. A percent apoptotic nucleus was calculated by dividing the number of TUNEL to Hoechst positive nuclei.

[3] = system: isolated mitochondria; assay: Oxygen consumption rate of ADP-stimulated isolated mitochondria; assay type: biochemical; conditions: 50 μM injected after ADP; no enzymatic activation
Protocol: Mitochondria were isolated using a Mitochondria Isolation Kit (Abcam, UK) per manufacturer instructions. Briefly, 10^7 cells were collected and ruptured using 30 strokes in a pre-cooled dounce homogenizer. Homogenate was centrifuged twice at 1,000×g for 10 minutes at 4° C. to remove debris, and finally at 12,000×g for 15 minutes at 4° C. Pellet containing the isolated mitochondria was resuspended in a protease inhibitor cocktail. Protein concentration was determined using Bradford. 20 μg of mitochondrial protein per well was plated in gelatin-coated SeaHorse XFp cell culture miniplate and centrifuged at 3,000×g for 20 minutes at 4° C. in mitochondrial assay solution (MAS) as previously described (29). Oxygen consumption rate (OCR) was measured by the XFp Extracellular Flux Analyzer (Seahorse Biosciences, USA). Mitochondrial activity was profiled by successive injections of ADP (Sigma-Aldrich, Israel) and 50 μM of troglitazone, rotenone or DMSO control.

[4] = system: HepG2/C3A cells; assay: Real-time oxygen uptake in perfused microwell bioreactor; assay type: cell-based, human
Protocol: (§2) PDMS microwell inserts were sterilized with 70% EtOH and 30 min exposure to UV light prior to cell seeding. Cells were trypsinized, counted and centrifuged at 300×g for 5 min at 4° C. The pellet was then mixed with […] CPOx-50-RuP oxygen-sensing beads (Colibri Photonics, Germany) and resuspended in 100 μl of ice-cold solution of collagen type I (BD Biosciences, USA) for a final seeding density of 4×10^6 cells/ml. The PDMS microwell insert was placed on ice and coated with ice-cold collagen solution for 5 min to remove air bubbles. Then 100 μl of collagen type I suspension containing cells and oxygen-sensing beads was layered on top the wells and incubated for 10 min on ice. The low temperature prevented premature collagen polymerization and the induction of cellular stress response pathways. Afterwards, excess cell and microbead suspension was gently wiped off the microwell insert using a sterile glass coverslip leading to a concentration of 100,000 cells and 20 oxygen-sensing beads per well. Variance in cell density between individual wells and between bioreactors was less than 10% measured by DNA content. The inoculated microwell insert was then incubated for 5 min at 37° C. to polymerize the collagen. Following polymerization, the insert was immersed in 5 ml of cell culture medium and incubated for 20 min at 37° C. prior to being sealed in the bioreactor housing. Bioreactors were then placed in a climate control chamber (Evotec, Germany) on an IX81 fluorescence microscope (Olympus, Japan). Bioreactors were continuously perfused with cell culture medium noted above supplemented with 10 mM HEPES and 1% DMSO at a flow rate of 2 μl/min. The automated and motorized microscope stage was equipped with a holder for three microreactors, allowing three experiments to run simultaneously.
(§3) Troglitazone (T2573), and rotenone (R8875) were purchased from Sigma-Aldrich (Schnelldorf, Germany) and diluted from H2O or DMSO stock concentration 1:1000 into HepG2/C3A culture medium. Exposure onset was calculated to within ±1 min based on volumetric flow rate, considering the length of the tubing and bioreactor volume.
(§4) Real-time oxygen measurements were performed optically using lifetime-based luminescencequenching as previously described (11). […] Excited by a sinusoidal amplitude-modulated 532 nm LED source, the microbeads emit a sinusoidal amplitudemodulated light at 605 nm that is shifted in phase due to oxygen quenching (FIG. 2D). To overcome the superposition of in-phase background fluorescence that alters the phase of the detected signal, a 53.5 kHz and 31.3 kHz two-frequency phase modulation was used. This allowed screening out background interference (26-28). Measurements were carried out by averaging 5 consecutive 3 second exposures, followed by 17 seconds intervals, for a total of 100 seconds. Measurements were taken every 15 minutes for as long as 28 days with no phototoxicity, signal drift, or relevant loss of signal intensity. The apparatus consists of the OPAL package (Colibri Photonics, Germany) that is comprised of a control module, 532 nm LED, and a photomultiplier (PMT) detector mounted on the ocular of an […] Olympus microscope (Olympus, Japan). A filter cube with 531/40 (Ex), 607/70 (Em) was inserted in the optical light path during measurements.

[5] = as above; assay type: cell-based, human; conditions: human
Protocol: as §2, §3, §4

[6] = system: HepG2/C3A organoids; assay: LIVE/DEAD cell viability staining; assay type: cell-based; conditions: 50 μM, 24 hours
Protocol: Unless otherwise noted, cell viability was determined utilizing LIVE/DEAD Cytotoxicity kit (Molecular Probes, Eugene, Oreg.) according to manufacturer's instructions. In brief, cultures were incubated with 2 μM Calcein AM and 3 μM ethidium homodimer-1 for 25 minutes. Hydrolysis by functional intracellular esterases causes live cells to fluoresce green, while the punctured membranes of dead cells permit ethidium homodimer-1 to bind DNA and fluoresce red. Cellular viability was calculated by live to dead ratio and normalized to negative control.

[7] = system: HepG2/C3A cells; assay: CDFDA staining for cholestasis (CDF retention, MRP2); assay type: cell-based, human; conditions: 24 hours exposure to 200 μM; due to inhibition of MRP2
Protocol: as §1

SMILES	increase in mitochondrial membrane potential (MMP) ([1]; within 3 hours of exposure)	effect on mitochondrial membrane potential (MMP), in words ([1]; rotenone after 3 hours, troglitazone along 6 hours)	increase in apoptosis (TUNEL) [2]	loss of OCR / inhibition of mitochondrial respiration in isolated mitochondria [3]	oxygen uptake, % of normal respiration ([4]; 1 μM, 12 hours exposure)	reduction of oxygen uptake ([4]; 50 μM)	oxygen uptake, % of normal respiration ([4]; 50 μM, 12 hours exposure)	oxygen uptake, % of normal respiration ([4]; 200 μM, 12 hours exposure)	time to onset of mitochondrial damage ([4]; 0.2 mM)	time within which the majority of the effect on oxygen uptake occurred ([4]; 1, 50, 200 μM)	time to onset of mitochondrial damage, in words ([4]; dose-dependent)	CC50 at 12 h ([5]; after 12 hours, read-out: TC50 (dose dependence of oxygen uptake))	increase in mitochondrial membrane potential (MMP) ([1]; over 6 hours of exposure)	cell death (Live/Dead) [6]	cell viability compared with untreated control [6]	oxygen uptake, % of normal respiration ([4]; 350 μM, 24 hours exposure)	oxygen uptake, % of normal respiration ([4]; 500 μM, 24 hours exposure)	oxygen uptake, % of normal respiration ([4]; 2000 μM, 24 hours exposure)	CC50 at 24 h [5]	increase in intracellular accumulation of bile acids / CDF staining (cholestasis) [7]
C=C(C)[C@H]1Cc2c(ccc3c2O[C@@H]2COc4cc(OC)c(OC)cc4[C@@H]2C3=O)O1 [rotenone]	40±6%	significant increase	14 fold and 14±2 fold	immediate; also recorded: directly inhibit mitochondrial respiration in minutes	35%	80%	27%	15%	≤ 6 min	≤ 60 min	in minutes rather than hours	12.5 µM	–	–	–	–	–	–	–	–
Cc1c(C)c2c(c(C)c1O)CCC(C)(COc1ccc(CC3SC(=O)NC3=O)cc1)O2 (stereo not drawn) [troglitazone]	–	–	–	–	–	10%	–	–	–	–	–	–	33±7%	Less than 5%	not significantly different from untreated control	32%	15%	8%	285 µM	4.5 fold and 4.5±0.6 fold
